Assay results: patent US20200361895A1, “NOVEL SULFONAMIDE CARBOXAMIDE COMPOUNDS” (Inflazome Limited, priority 2017, published 2020)
Where a name gives a salt, the structure may show the parent alone.

How the values were obtained:
NLRP3 [1] = biological target: T1, NLRP3 (Homo sapiens, UniProt Q96P20); test: THP-1 cells pyroptosis assay (LPS + nigericin, resazurin readout; THP IC50); format: cell-based; parameters: Seed THP-1 cells (25,000 cells/well) containing 1.0 μg/ml LPS in 40 μl of RPMI medium; host or cells: THP-1 cells
Method in brief: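 Human THP-1 cells, 25,000/well in serum-free RPMI with 1 μg/ml LPS, treated 3 hrs at 37° C with compound (8-point half-log, 10 μM top, 0.1% DMSO), then 5 μM nigericin 1 hr. Viability by 100 μM resazurin fluorescence after 1-2 hrs; IC50 by 4-parameter fit.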

NLRP3 [2] = biological target: T1, NLRP3; test: Human whole blood IL1β release assay (LPS + nigericin, AlphaLisa IL-1β; HWB IC50); format: cell-based; parameters: Human whole blood in Li-heparin tubes was obtained from healthy donors from a volunteer donor panel; from tissue; host or cells: human whole blood from healthy donors; settings: IL-1β release
Method in brief: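 Donor Li-heparin whole blood primed with 1 μg/ml LPS, given compound (8-point half-log series, 10 μM top; DMSO 0.1% final) for 3 h at 37 °C, then nigericin 10 μM final for 1 h. Supernatant IL-1β measured by AlphaLisa; IC50 from 4-parameter variable-slope fit.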

T1 sequence (Q96P20 whole entry): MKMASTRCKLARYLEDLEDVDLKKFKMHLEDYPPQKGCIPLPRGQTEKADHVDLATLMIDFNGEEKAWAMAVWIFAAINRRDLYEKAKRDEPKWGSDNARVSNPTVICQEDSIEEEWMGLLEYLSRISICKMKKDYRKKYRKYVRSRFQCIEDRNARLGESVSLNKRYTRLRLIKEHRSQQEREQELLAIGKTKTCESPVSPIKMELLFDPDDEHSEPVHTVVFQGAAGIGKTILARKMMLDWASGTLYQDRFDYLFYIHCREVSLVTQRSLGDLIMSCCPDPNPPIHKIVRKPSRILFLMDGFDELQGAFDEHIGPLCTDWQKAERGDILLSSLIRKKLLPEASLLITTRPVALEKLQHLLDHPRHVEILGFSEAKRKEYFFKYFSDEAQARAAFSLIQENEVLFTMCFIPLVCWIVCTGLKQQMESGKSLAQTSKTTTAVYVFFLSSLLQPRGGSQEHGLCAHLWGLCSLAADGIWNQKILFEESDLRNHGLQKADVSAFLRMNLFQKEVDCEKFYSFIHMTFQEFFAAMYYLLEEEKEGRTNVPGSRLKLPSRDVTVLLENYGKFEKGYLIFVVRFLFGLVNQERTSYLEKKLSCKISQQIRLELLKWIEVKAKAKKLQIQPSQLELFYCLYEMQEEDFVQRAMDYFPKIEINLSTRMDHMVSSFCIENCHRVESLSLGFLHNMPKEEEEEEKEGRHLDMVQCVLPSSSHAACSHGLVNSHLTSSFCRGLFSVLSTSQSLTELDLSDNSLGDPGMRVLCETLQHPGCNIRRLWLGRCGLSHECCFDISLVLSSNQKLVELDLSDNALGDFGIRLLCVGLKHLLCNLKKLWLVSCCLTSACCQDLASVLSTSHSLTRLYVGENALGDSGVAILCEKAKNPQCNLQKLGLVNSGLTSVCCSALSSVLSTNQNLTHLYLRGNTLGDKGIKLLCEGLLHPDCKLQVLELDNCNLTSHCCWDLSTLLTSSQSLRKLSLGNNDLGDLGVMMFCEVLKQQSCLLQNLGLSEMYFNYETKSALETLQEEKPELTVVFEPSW

| IC50 (NLRP3 [1]) [nM] | IC50 (NLRP3 [2]) [nM] | Structure (SMILES) |
| --- | --- | --- |
| ≤ 500 | ≤ 500 | COc1cc(-c2ccc3c(c2NC(=O)NS(=O)(=O)c2ccn(C(C)(C)C#N)n2)CCO3)ccn1 [Example 196, 1-(2-Cyanopropan-2-yl)-N-((5-(2-methoxypyridin-4-yl)-2,3-dihydrobenzofuran-4-yl)carbamoyl)-1H-pyrazole-3-sulfonamide] |
| ≤ 500 | ≤ 500 | CNCC(C)(C)n1ccc(S(=O)(=O)NC(=O)Nc2c(-c3ccnc(OC)c3)ccc3c2CCC3)n1 [Example 197, N-((5-(2-Methoxypyridin-4-yl)-2,3-dihydro-1H-inden-4-yl)carbamoyl)-1-(2-methyl-1-(methylamino)propan-2-yl)-1H-pyrazole-3-sulfonamide, sodium salt] |
| ≤ 500 | ≤ 500 | CN(C)CC(C)(C)n1ccc(S(=O)(=O)NC(=O)Nc2c(-c3ccnc(OC4CC4)c3)ccc3c2CCO3)n1 [Example 198, N-((5-(2-Cyclopropoxypyridin-4-yl)-2,3-dihydrobenzofuran-4-yl)carbamoyl)-1-(1-(dimethylamino)-2-methylpropan-2-yl)-1H-pyrazole-3-sulfonamide, sodium salt] |
| ≤ 500 | ≤ 500 | COc1cc(-c2ccc3c(c2NC(=O)NS(=O)(=O)c2ccn(C4CCN(C)C4)n2)CCC3)ccn1 (stereo not drawn) [Example 199, N-((5-(2-Methoxypyridin-4-yl)-2,3-dihydro-1H-inden-4-yl)carbamoyl)-1-(1-methylpyrrolidin-3-yl)-1H-pyrazole-3-sulfonamide, sodium salt] |
| ≤ 500 | ≤ 500 | CN(C)CC(C)(C)n1ccc(S(=O)(=O)NC(=O)Nc2c(-c3ccnc(OC4CC4)c3)ccc3c2CCC3)n1 [Example 200, N-((5-(2-Cyclopropoxypyridin-4-yl)-2,3-dihydro-1H-inden-4-yl)carbamoyl)-1-(1-(dimethylamino)-2-methylpropan-2-yl)-1H-pyrazole-3-sulfonamide, sodium salt] |
| ≤ 500 | ≤ 500 | COc1cc(-c2ccc3c(c2NC(=O)NS(=O)(=O)c2ccn(C(C)(C)C#N)n2)CCC3)ccn1 [Example 201, 1-(2-Cyanopropan-2-yl)-N-((5-(2-methoxypyridin-4-yl)-2,3-dihydro-1H-inden-4-yl)carbamoyl)-1H-pyrazole-3-sulfonamide, sodium salt] |
| ≤ 500 | ≤ 500 | CN(C)CC(C)(C)n1ccc(S(=O)(=O)NC(=O)Nc2c(-c3ccnc(C#N)c3)ccc3c2CCC3)n1 [Example 202, N-((5-(2-Cyanopyridin-4-yl)-2,3-dihydro-1H-inden-4-yl)carbamoyl)-1-(1-(dimethylamino)-2-methylpropan-2-yl)-1H-pyrazole-3-sulfonamide] |
| ≤ 500 | ≤ 500 | CN(C)CC(C)(C)n1ccc(S(=O)(=O)NC(=O)Nc2c(-c3cccnc3)ccc3c2CCC3)n1 [Example 203, 1-(1-(Dimethylamino)-2-methylpropan-2-yl)-N-((5-(pyridin-3-yl)-2,3-dihydro-1H-inden-4-yl)carbamoyl)-1H-pyrazole-3-sulfonamide] |
| ≤ 500 | ≤ 5000 | CC(C)n1ccc(S(=O)(=O)NC(=O)Nc2c(-c3cccnc3)cc(F)c3c2CCC3)n1 [Example 206, N-((7-Fluoro-5-(pyridin-3-yl)-2,3-dihydro-1H-inden-4-yl)carbamoyl)-1-isopropyl-1H-pyrazole-3-sulfonamide] |
| ≤ 1000 | ≤ 5000 | CC(C)n1ccc(S(=O)(=O)NC(=O)Nc2c(-c3cccnc3)ccc3ccccc23)n1 [Example 207, 1-Isopropyl-N-((2-(pyridin-3-yl)naphthalen-1-yl)carbamoyl)-1H-pyrazole-3-sulfonamide] |
| ≤ 500 | ≤ 5000 | COc1cc(-c2ccc3ccccc3c2NC(=O)NS(=O)(=O)c2ccn(C(C)C)n2)ccn1 [Example 209, 1-Isopropyl-N-((2-(2-methoxypyridin-4-yl)naphthalen-1-yl)carbamoyl)-1H-pyrazole-3-sulfonamide] |
| ≤ 500 | ≤ 5000 | COc1cc(-c2cc(F)cc(C3CC3)c2NC(=O)NS(=O)(=O)c2ccn(C(C)C)n2)ccn1 [Example 210, N-((2-Cyclopropyl-4-fluoro-6-(2-methoxypyridin-4-yl)phenyl)carbamoyl)-1-isopropyl-1H-pyrazole-3-sulfonamide] |
| ≤ 500 | ≤ 5000 | COc1cc(-c2cc(F)cc(C3CCCC3)c2NC(=O)NS(=O)(=O)c2ccn(C(C)C)n2)ccn1 [Example 211, N-((2-Cyclopentyl-4-fluoro-6-(2-methoxypyridin-4-yl)phenyl)carbamoyl)-1-isopropyl-1H-pyrazole-3-sulfonamide] |
| ≤ 500 | ≤ 5000 | COc1cc(-c2ccc3c(c2NC(=O)NS(=O)(=O)c2ccn(C(C)C)n2)CCCC3)ccn1 [Example 213, 1-Isopropyl-N-((2-(2-methoxypyridin-4-yl)-5,6,7,8-tetrahydronaphthalen-1-yl)carbamoyl)-1H-pyrazole-3-sulfonamide] |
| ≤ 500 | ≤ 1000 | CCOc1cc(-c2ccc3c(c2NC(=O)NS(=O)(=O)c2ccn(C(C)C)n2)CCC3)ccn1 [Example 214, N-((5-(2-Ethoxypyridin-4-yl)-2,3-dihydro-1H-inden-4-yl)carbamoyl)-1-isopropyl-1H-pyrazole-3-sulfonamide] |
| ≤ 500 | ≤ 500 | CC(C)n1ccc(S(=O)(=O)NC(=O)Nc2c(-c3ccnc(C#N)c3)ccc3c2CCC3)n1 [Example 215, N-((5-(2-Cyanopyridin-4-yl)-2,3-dihydro-1H-inden-4-yl)carbamoyl)-1-isopropyl-1H-pyrazole-3-sulfonamide] |
| ≤ 500 | ≤ 5000 | CC(C)Oc1cc(-c2ccc3c(c2NC(=O)NS(=O)(=O)c2ccn(C(C)C)n2)CCC3)ccn1 [Example 216, N-((5-(2-Isopropoxypyridin-4-yl)-2,3-dihydro-1H-inden-4-yl)carbamoyl)-1-isopropyl-1H-pyrazole-3-sulfonamide] |
| ≤ 500 | ≤ 1000 | CC(C)n1ccc(S(=O)(=O)NC(=O)Nc2c(-c3cc[nH]c(=O)c3)ccc3c2CCC3)n1 [Example 218, 1-Isopropyl-N-((5-(2-oxo-1,2-dihydropyridin-4-yl)-2,3-dihydro-1H-inden-4-yl)carbamoyl)-1H-pyrazole-3-sulfonamide] |
| ≤ 500 | ≤ 500 | COc1cc(-c2ccc3c(c2NC(=O)NS(=O)(=O)c2ccn(C(C)(C)CN4CCC4)n2)CCC3)ccn1 [Example 219, 1-(1-(Azetidin-1-yl)-2-methylpropan-2-yl)-N-((5-(2-methoxypyridin-4-yl)-2,3-dihydro-1H-inden-4-yl)carbamoyl)-1H-pyrazole-3-sulfonamide] |
| ≤ 500 | ≤ 500 | N#Cc1cc(-c2ccc3c(c2NC(=O)NS(=O)(=O)c2ccn(C4CC4)n2)CCC3)ccn1 [Example 222, N-((5-(2-Cyanopyridin-4-yl)-2,3-dihydro-1H-inden-4-yl)carbamoyl)-1-cyclopropyl-1H-pyrazole-3-sulfonamide, sodium salt] |
| ≤ 500 | ≤ 5000 | CC(C)n1ccc(S(=O)(=O)NC(=O)Nc2c(-c3ccnc(C#N)c3)cc(Cl)c3c2CCC3)n1 [Example 225, N-((7-Chloro-5-(2-cyanopyridin-4-yl)-2,3-dihydro-1H-inden-4-yl)carbamoyl)-1-isopropyl-1H-pyrazole-3-sulfonamide, sodium salt] |
| ≤ 500 | ≤ 1000 | COc1cc(-c2cc(Cl)c3c(c2NC(=O)NS(=O)(=O)c2ccn(C(C)C)n2)CCC3)ccn1 [Example 226, N-((7-Chloro-5-(2-methoxypyridin-4-yl)2,3-dihydro-1H-inden-4-yl)carbamoyl)-1-isopropyl-1H-pyrazole-3-sulfonamide, sodium salt] |
| ≤ 500 | ≤ 500 | N#Cc1cc(-c2ccc3c(c2NC(=O)NS(=O)(=O)c2ccn(C4CCC4)n2)CCC3)ccn1 [Example 227, N-((5-(2-Cyanopyridin-4-yl)-2,3-dihydro-1H-inden-4-yl)carbamoyl)-1-cyclobutyl-1H-pyrazole-3-sulfonamide] |
| ≤ 500 | ≤ 500 | CC(C)n1cnc(S(=O)(=O)NC(=O)Nc2c(-c3ccnc(C#N)c3)ccc3c2CCC3)n1 [Example 228, N-((5-(2-Cyanopyridin-4-yl)-2,3-dihydro-1H-inden-4-yl)carbamoyl)-1-isopropyl-1H-1,2,4-triazole-3-sulfonamide, sodium salt] |
| ≤ 500 | ≤ 500 | CC(C)n1cnc(S(=O)(=O)NC(=O)Nc2c(-c3ccnc(C#N)c3)ccc3c2CCC3)c1 [Example 229, N-((5-(2-Cyanopyridin-4-yl)-2,3-dihydro-1H-inden-4-yl)carbamoyl)-1-isopropyl-1H-imidazole-4-sulfonamide] |
| ≤ 500 | ≤ 500 | N#Cc1cc(-c2ccc3c(c2NC(=O)NS(=O)(=O)c2cnn(CC(F)F)c2)CCC3)ccn1 [Example 231, N-((5-(2-Cyanopyridin-4-yl)-2,3-dihydro-1H-inden-4-yl)carbamoyl)-1-(2,2-difluoroethyl)-1H-pyrazole-4-sulfonamide, sodium salt] |
| ≤ 500 | ≤ 1000 | COc1cc(-c2ccc3c(c2NC(=O)NS(=O)(=O)c2ncn(C(C)C)n2)CCC3)ccn1 [Example 232, 1-Isopropyl-N-((5-(2-methoxypyridin-4-yl)-2,3-dihydro-1H-inden-4-yl)carbamoyl)-1H-1,2,4-triazole-3-sulfonamide, sodium salt] |
